Test results published in patent publication US12465791B2, “Oral care composition” (Colgate-Palmolive Company, priority 2014, dated 2025).

Legend:
Human keratinocytes = assay: Gap closure after scratch, migration of human keratinocytes; format: cell-based; details: 100 ppm Arginine in DMEM
Description: Human keratinocytes are cultured in DMEM medium supplemented with 10% FBS and 1% of antibiotic at 37° C. under a 5% CO2 atmosphere in petri dishes. Once the cells are 80-90% confluent, a scratch is made horizontally and a scratch is made vertically across the layer of cells. 1 ml of a test solution is added to the culture, and the cells are further incubated and monitored by photomicroscopy to evaluate the closure of the gap created by the scratches. The test solutions compared are 100 ppm Arginine in DMEM medium and untreated DMEM medium. The results are shown in Table 3 below, expressed as the average width of the gap as a percentage of the initial width of the gap (at 0 hours).
A second gap closure experiment is also performed which compares the results obtained when 100 ppm Arginine in DMEM is used against 1:500 v/v dilutions of commercial mouthwash formulations. In one test, a 0.8% w/v arginine mouthwash formulation is used. In a second test, a 0.075% w/v cetylpyridinium chloride (CPC) mouthwash formulation is used as a negative control. CPC is common antibacterial agent and preservative used in oral care products.

HSP 27 = HSP 27 production in scratched (damaged) human gingival tissue, level in cell supernatant; format: cell-based; details: for HSP27 concentration: scratched gingival tissue, arginine 50 ppm in culture medium, 37° C.
Description: A scratching protocol was used to damage and stress human gingival tissue (MatTek Corporation). Arginine, at a dose of 50 ppm was applied to the culture medium containing the tissue. The treated tissue was incubated at 37° C. to promote tissue healing. Cell supernatant was collected at various time points and the level of HSP 27 was measured.

HSP-27 = assay: Intracellular HSP 27 expression in scratched keratinocytes (ELISA); format: cell-based, human; details: for HSP-27, intracellular: scratched keratinocytes, 50 ppm Arginine
Description: Human keratinocytes are cultured in DMEM medium supplemented with 10% FBS and 1% of antibiotic at 37° C. under a 5% CO2 atmosphere in petri dishes. Once the cells are 80-90% confluent, a scratch is made horizontally and a scratch is made vertically across the layer of cells. […] […] The cell suspension is then homogenized with metal beads for 5 minutes and then analyzed for HSP27 using ELISA. In both untreated and arginine treated cells, scratching induces a strong increase in intracellular HSP-27 expression at one hour which declines at 4 hours. […] Without being bound by theory, Applicants believe that it is this initial burst of HSP-27 expression at the time of physical injury that contributes to improved wound healing.

For `N=C(N)NCCCC(N)C(=O)O` (stereo not shown) [Arginine, 2-amino-5-guanidinopentanoic acid], the “speed of gap closure compared to the DMEM control” value (Human keratinocytes) was “significantly faster”, the “% Gap Closure” value (Human keratinocytes; 24 hr after scratch) was 21% and the “% Gap Closure” value (Human keratinocytes; 48 hr after scratch) was 63%. For the same compound, the “% Gap Closure” value (Human keratinocytes; 144 hr after scratch) was 100%, the “% Gap Closure” value (Human keratinocytes; second experiment, 48 hr) was 75% and the “production of HSP 27 compared to the untreated, scratched tissue” value (HSP 27; arginine 50 ppm, at 1 hour and at 4 hours) was “significantly accelerated”. It also gave an HSP27 concentration (HSP 27; incubation time 0 hr) of 22.78 ng/mL, an HSP27 concentration (HSP 27; incubation time 1 hr) of 218.76 ng/mL and an HSP27 concentration (HSP 27; incubation time 4 hr) of 359.72 ng/mL. The “intracellular HSP-27 expression compared to untreated scratched cells” value (HSP-27; 50 ppm arginine) was “significantly higher expression”, the “HSP-27, intracellular” value (HSP-27; time 0 hr) was 17.11 ng/mL and the “HSP-27, intracellular” value (HSP-27; time 1 hr) was 64.04 ng/mL. For the same compound, the “HSP-27, intracellular” value (HSP-27; time 2 hr as printed in the table) was 45.12 ng/mL.
